Test results published in BindingDB's records for doi:10.1021/acs.jmedchem.3c00250 (n/a, 2023).

Molecular target: Protein arginine N-methyltransferase 5/MEP50 complex (Homo sapiens)
Assay: Inhibition of full-length recombinant PRMT5/full-length recombinant MEP50 (unknown origin) expressed in baculovirus infected Sf21 cells using biotinylated H4R3(Mel) peptide as substrate preincubated for 60 mins followed by substrate addition and measured for 150 minutes in the presence of SAM by methylation assay

- EC50: 0.9 nM
SMILES: CC(=O)N1CCC(Nc2cc(C(=O)N3CC[C@H](N4CCc5ccccc5C4)[C@@H](O)C3)c(F)cn2)CC1
